What all share (assay): NCI anticancer screen, dose series, 48 h
The subject of assay [1] is SF-268 CNS.
In assay [2] the test system is SF-295 CNS.
Assay [3] has as its system OVCAR-8 ovarian.
Assay [4] relates to MALME-3M melanoma.
Assay [5] relates to SK-OV-3 ovarian.
Assay [6] has as its system SK-MEL-28 melanoma.
The test system of assay [7] is MDA-MB-231 breast.
Assay [8] relates to HCT-15 colon.
Assay [9] relates to IGROV1 ovarian.
The subject of assay [10] is SR leukemia.

Where “and” joins values, the source holds several entries; their conditions need not be identical. Equal values may be shown once.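 Compound exposure: 48 hours, 5 concentrations, 96-well plates. Abbreviation: GI50, concentration required for 50% inhibition of growth. TGI: total growth inhibition.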 A value given as a limit tells only on which side of the number the result lay.

For the molecule `Cc1c(-c2ccc(-c3ccccc3F)cc2)nc2ccc(F)cc2c1C(=O)O`, the TGI in [1] is 173 µM and 866 µM; in assay [2], 43.6 µM and 48.6 µM and 210 µM; in [3], 161 µM and 244 µM; in assay [4], 107 µM and 293 µM; in assay [5], 86.5 µM and 603 µM; in assay [6], 158 µM and 400 µM. Further, the TGI in assay [7] is 146 µM and 250 µM; in [8] it was 114 µM and 153 µM; in assay [9] it was 64.8 µM and 227 µM. Besides, the GI50 in assay [2] was 163 nM and 1370 nM; in assay [3] it was 257 nM and 711 nM; in assay [4] it was 22700 nM and 43900 nM; in [5] it was over 41200 nM; in [6] it was 22.4 µM and 67.8 µM; in assay [7], 89.8 µM and 30.5 µM. Moreover, the GI50 in assay [8] is 76.4 nM and 500 nM; in assay [9], 726 nM and 654 nM.

As for `COC(=O)N[C@@H](C)CNc1nccc(-c2cn(C(C)C)nc2-c2cc(Cl)cc(NS(C)(=O)=O)c2F)n1`, the GI50 in [1] is over 100 µM; in assay [2], 55700 nM; in assay [3], over 100000 nM; in assay [10], 25.6 µM; in [5], 363 nM; in assay [7] it was 5.72 µM. Further, the GI50 in [8] is 7460 nM; in assay [9] it was 678 nM. Moreover, the TGI was over 100 µM in [1]; over 100 µM in assay [2]; over 100 µM in [3]; over 84.7 µM in [10]; over 100 µM in [5]; over 100 µM in [7]. Besides, the TGI in [8] and in assay [9] was over 100 µM in each case.

`CCCCC[C@H]1C/C=C2/C(=O)C=C[C@@H]2C/C=C\CCCC(=O)O1`: the GI50 in [1] is 0.19 µM; in assay [2], 123 nM; in assay [3], 149 nM; in assay [4], 500 nM; in assay [10], 0.124 µM; in assay [5] it was 364 nM. Besides, the GI50 in assay [6] was 0.155 µM; in assay [7], 0.212 µM; in [8] it was 93.7 nM; in assay [9], 209 nM. In addition, the TGI in [1] was determined as 5.94 µM; in assay [2], 0.298 µM; in assay [3] it was 5.12 µM; in [4], 5.02 µM; in [10], 50 µM; in [5], 6.11 µM. In addition, the TGI is 0.705 µM in [6], 6.39 µM in [7], 0.26 µM in [8] and 1.43 µM in [9].

On to `CC(C)C(Br)C(=O)NCC(=O)O` (stereo unspecified), for which the TGI in assay [1], in assay [2], in assay [3], in assay [4], in assay [10] and in assay [5] was over 100 µM in each case. Also, the TGI in assay [6], in [7], in [8] and in assay [9] was over 100 µM each time.

Take `CCOC(=O)c1sc(NC(=O)COc2ccc(/C=C3\CCc4cc(OC)ccc4C3=O)cc2)nc1C`: the GI50 in [1] was 11.4 µM; in [2], 11100 nM; in assay [3] it was 9500 nM; in [4] it was 1130 nM; in assay [5], 18700 nM; in assay [6] it was 14.6 µM. Moreover, the results for the GI50 in assay [7], in assay [8] and in assay [9] were 13.1 µM, 7960 nM and 1630 nM, respectively. Further, the TGI in assay [1] amounted to 26.5 µM; in assay [2], 23.9 µM; in assay [3], 34.7 µM; in [4] it was 12.6 µM; in [5], 45.3 µM; in assay [6], 27.7 µM. Also, the TGI in assay [7] was 31.8 µM; in [8], 21.1 µM; in assay [9], 6.22 µM.

Take `O=C(CC1(O)CCCCC1)OC1CCCC1`: the TGI in assay [1], in assay [2], in assay [3], in assay [4], in assay [5] and in assay [7] was over 100 µM in each case. Also, the TGI in [8] and in [9] was over 100 µM each time.

Regarding `O=C(OCC1=CC(=O)c2ccccc2C1=O)c1ccccc1`, the GI50 is 14.1 µM in [1]; 6410 nM in [2]; 14400 nM in [3]; 1430 nM in assay [4]; 3.51 µM in assay [10]; 13 µM in assay [6]. The figures for the GI50 in assay [7], in assay [8] and in assay [9] were 14.3 µM, 10600 nM and 12500 nM, respectively. Moreover, the TGI in [1] turned out to be 29.6 µM; in [2] it was 20.5 µM; in assay [3], 29.1 µM; in assay [4], 3.12 µM; in assay [10], 30.8 µM; in assay [6] it was 28 µM. Besides, the results for the TGI in [7], in assay [8] and in [9] were 28.5 µM, 29.5 µM and 25.6 µM, respectively.

`C=C(CN1CCN(c2ccccn2)CC1)c1ccc(C(=O)Nc2ccccc2N)cc1`: the GI50 was 1.66 µM in assay [1]; 1390 nM in assay [2]; 1500 nM in [3]; 5.33 µM in [10]; 1300 nM in assay [5]; 2.52 µM in assay [6]. The results for the GI50 in assay [7], in assay [8] and in [9] were 2.17 µM, 1910 nM and 1570 nM, respectively. The TGI in assay [1] was 9.22 µM; in assay [2] it was 6.52 µM; in [3], over 50 µM; in assay [10] it was over 50 µM; in assay [5], 4.44 µM; in [6], over 50 µM. The TGI is over 50 µM in assay [7], over 50 µM in assay [8] and 37.8 µM in assay [9].

With `OC(Cc1cccc2ccccc12)CN1CCC(c2ccccc2)CC1` (stereo unspecified), the TGI in assay [1] came out at 28.2 µM; in assay [2] it was 27.9 µM; in assay [3], 32 µM; in assay [10], 27.4 µM; in assay [5], 31.3 µM; in [6] it was 26.8 µM. Moreover, the TGI turned out to be 28.4 µM in assay [7] and 30.4 µM in assay [8].

Turning to `BrCc1ccc2ccc3ccc(CBr)nc3c2n1`, the TGI in assay [1] stood at 9.04 µM; in [2], 28.6 µM; in [3], 15.7 µM; in assay [10], 5.54 µM; in assay [6], 6.02 µM; in assay [7], 6.86 µM. Also, the TGI came out at 4.18 µM in [8] and 10.8 µM in assay [9].
